Experimental data as given in patent US20240294697A1, “AMPHIPHILIC OLIGOMERS AND SELF-ASSEMBLING HYDROGELS FORMED THEREFROM” (THE GOVERNING COUNCIL OF THE UNIVERSITY OF TORONTO, priority 2021, published 2024).

Tested on: primary chondrocytes
Conditions: H2O2 between 25 and 100 μM
Experimental: To prepare for this experiment, specific concentrations of H2O2 and ascorbic acid were prepared by testing a range of concentrations and incubating at 37° C. On the following day, 200 μL of each condition was treated to pre-seeded primary chondrocytes at passage 6 and evaluated for its metabolic activity as per below. Each condition was performed in triplicate.
Cryopreserved Human Chondrocytes (HCH) were purchased from PromoCell at passage 2 (P2). HCH were cultured in proprietary chondrocyte growth medium and supplemented with 10% Growth Medium Supplement by PromoCell at 37° C. and 5% CO2. The medium was changed every 2-3 days until the cells achieved 80% confluence. Once the cells reached confluence, the chondrocytes were treated with the DetachKit (purchased by PromoCell). […]
Following the 24-hour exposure of the leachable material and controls, the treated media was aspirated and 110 μL of a 10% solution (v/v) of WST-1 reagent in media was added to each well and incubated for two hours to ensure that all viable cells converted the tetrazolium salt to formazan. The absorbance of formazan was read on a Plate Reader (Perkin Elmer) at 450 nm. The absorbance values of all treatments and the positive control were normalized to cells treated with media.

What does the source list for `OO` [H2O2, hydrogen peroxide]?
concentrations evidencing cell toxicity: above 50 μM; concentrations resulting in metabolically active cells: below 50 μM
